Experimental data from patent US20020086278A1, “CHROMOGENIC MEDIA CONTAINING BLOOD OR HEMIN” (priority 1999, published 2002).
Where two headings read alike, the source gives them in different places.

Tests used:
[1] = system: Serratia marcescens (sema); assay: Example 3: colony color on chromogenic TSA II with 5% sheep blood (chromogen in medium); assay type: cell-based; settings: for Colony Color: sema 13880, CO2
milu 9341 = assay: as above; assay type: cell-based
[2] = system: Pseudomonas aeruginosa (psae); assay: as above; assay type: cell-based; settings: for Colony Color: CO2
[3] = system: Citrobacter freundii (cifr); assay: as above; assay type: cell-based; settings: for Colony Color: CO2
[4] = system: E. coli (non-O157) (esco); assay type: cell-based
[5] = system: Streptococcus agalactiae (stag); assay: Example 3: colony color on chromogenic TSA II with 5% sheep blood (chromogen in medium); assay type: cell-based
[6] = Precipitate of chromogen on pre-plated media; assay type: physicochemical; settings: After 1 week
Experimental: 50 μl of each chromogen solution was added to the surface of each of the following pre-plated media (one chromogen solution per plate):
The solution was dispersed using a spreader and allowed to dry 3-4 hours in a hood.

E. faecium (enfu) = assay: Example 3: colony color on chromogenic TSA II with 5% sheep blood (chromogen in medium); assay type: cell-based; settings: for Colony Color: enfu 49032
[7] = system: Staphylococcus Coag Neg (step); assay: as above; assay type: cell-based; settings: for Colony Color on Various Chromogenic TSA II with 5% Sheep Blood: 18 h
[8] = system: Branhamella catarrhalis (brca); assay: as above; assay type: cell-based; settings: for Colony Color: CO2
[9] = system: Entercoccus faecalis (enfa); assay: as above; assay type: cell-based
Salmonella spp. (sasp) = assay type: cell-based; settings: for Colony Color: CO2
Candida albicans (caal) = assay: Example 3: colony color on chromogenic TSA II with 5% sheep blood (chromogen in medium); assay type: cell-based
S. milleri (stmi) = assay: as above; assay type: cell-based
S. pneumoniae (stpn) = assay: as above; assay type: cell-based; settings: for Colony Color on Various Chromogenic TSA II with 5% Sheep Blood: 18 h
[10] = system: Staphylococcus aureus (stau); assay: as above; assay type: cell-based
[11] = system: Streptococcus pneumoniae 6303; assay: Example 1: growth and colony color on plates surface-spread with chromogen; assay type: cell-based
S pyogenes (stpy) = assay: Example 3: colony color on chromogenic TSA II with 5% sheep blood (chromogen in medium); assay type: cell-based; settings: for Colony Color: 21 h; for Colony Color on Various Chromogenic TSA II with 5% Sheep Blood: 18 h
[12] = chromogenic TSA II with 5% Sheep Blood, 0.1 g/l, 1 strain tested
[13] = chromogenic TSA II with 5% Sheep Blood, 0.1 g/l, 3 strains tested
[14] = chromogenic TSA II with 5% Sheep Blood, 0.1 g/l, 2 strains tested
[15] = chromogenic TSA II with 5% Sheep Blood, 0.1 g/l, 6 strains tested
[16] = chromogenic TSA II with 5% Sheep Blood, 0.1 g/l

CC(=O)N[C@H]1[C@H](Oc2c[nH]c3ccc(Br)c(Cl)c23)O[C@H](CO)[C@H](O)[C@@H]1O [X-Acglmn, 5-Br-4-Cl-3-indolyl-N-Acetyl-β-D-galactosaminide]
Colony Color (Summary) [1, 12]: +
Colony Color ([1]; 18 h): gb
Colony Color ([1]; 21 h): gb
Colony Color (milu 9341; CO2, 18 h): ly
Colony Color (milu 9341; CO2, 21 h): 0
Colony Color (Summary) [2, 13]: 0
Colony Color ([2]; psae 9027, 18 h): 0
Colony Color ([2]; psae 9027, 21 h): 0
Colony Color ([2]; psae 15442, 18 h): 0
Colony Color ([2]; psae 15442, 21 h): 0
Colony Color ([2]; psae 33607, 18 h): 0
Colony Color ([2]; psae 33607, 21 h): 0
Colony Color (Summary) [3, 14]: 0
Colony Color ([3]; cifr 8454, 18 h): 0
Colony Color ([3]; cifr 8454, 21 h): 0
Colony Color ([3]; cifr 33128, 18 h): 0
Colony Color ([3]; cifr 33128, 21 h): 0
Colony Color (Summary) [4, 13]: 0
Colony Color ([4]; esco 11775, CO2, 18 h): 0
Colony Color ([4]; esco 11775, CO2, 21 h): 0
Colony Color ([4]; esco 25922, CO2, 24 h): 0
Colony Color ([4]; esco 25922, air, 24 h): 0
Colony Color ([4]; esco 33605, CO2, 18 h): 0
Colony Color ([4]; esco 33605, CO2, 21 h): 0
Colony Color (Summary) [5, 13]: 0
Colony Color ([5]; stag 4768, CO2, 21 h): 0
Colony Color ([5]; stag 4768, air, 21 h): 0
Colony Color ([5]; stag 12386, CO2, 21 h): 0
Colony Color ([5]; stag 12386, CO2, 24 h): 0
Colony Color ([5]; stag 12386, air, 24 h): 0
Precipitate on plates after 1 week [6]: some precipitate was evident
Colony Color (Summary) (E. faecium (enfu); [12]): +
Colony Color (E. faecium (enfu); CO2, 18 h): lb
Colony Color (E. faecium (enfu); CO2, 21 h): db
Colony Color (E. faecium (enfu); air, 21 h): lb
Colony Color ([7]; one S. epidermidis): blue
Colony Color on Various Chromogenic TSA II with 5% Sheep Blood ([7]; step 12228, CO2): 0
Colony Color ([7]; step 12228, CO2, 21 h): 0
Colony Color ([7]; step 12228, air, 21 h): 0
Colony Color on Various Chromogenic TSA II with 5% Sheep Blood ([7]; step cdc1, CO2): 0
Colony Color ([7]; step cdc1, CO2, 21 h): 0
Colony Color ([7]; step cdc1, air, 21 h): 0
Colony Color ([7]; step cdc2, CO2, 21 h): 0
Colony Color ([7]; step cdc2, air, 21 h): 0
Colony Color ([7]; step cdc3, CO2, 21 h): 0
Colony Color ([7]; step cdc3, air, 21 h): 1b
Colony Color on Various Chromogenic TSA II with 5% Sheep Blood ([7]; step cdc4, CO2): 0
Colony Color ([7]; step cdc4, CO2, 21 h): 0
Colony Color ([7]; step cdc4, air, 21 h): 0
Colony Color on Various Chromogenic TSA II with 5% Sheep Blood ([7]; stha cdc2, CO2): 0
Colony Color on Various Chromogenic TSA II with 5% Sheep Blood ([7]; stsa cdc3, CO2): 0
Colony Color ([8]; brca 25238, 18 h): 0
Colony Color ([8]; brca 25238, 21 h): 0
Colony Color ([8]; brca 25240, 21 h): 0
Colony Color (Summary) [8, 14]: 0
Colony Color (Summary) [9, 15]: +
Colony Color ([9]; enfa 597, CO2, 18 h): db
Colony Color ([9]; enfa 597, CO2, 21 h): db
Colony Color ([9]; enfa 10741, CO2, 18 h): db
Colony Color ([9]; enfa 10741, CO2, 21 h): db
Colony Color ([9]; enfa 12953, CO2, 18 h): db
Colony Color ([9]; enfa 12953, CO2, 21 h): db
Colony Color ([9]; enfa 14506, CO2, 18 h): db
Colony Color ([9]; enfa 14506, CO2, 21 h): db
Colony Color ([9]; enfa 29212, CO2, 18 h): db
Colony Color ([9]; enfa 29212, CO2, 21 h): db
Colony Color ([9]; enfa 29212, CO2, 24 h): db
Colony Color ([9]; enfa 29212, air, 24 h): db
Colony Color (Summary) (Salmonella spp. (sasp); [14]): 0
Colony Color (Salmonella spp. (sasp); saty 19430, 18 h): 0
Colony Color (Salmonella spp. (sasp); saty 19430, 21 h): 0
Colony Color (Salmonella spp. (sasp); satym 14028, 18 h): 0
Colony Color (Salmonella spp. (sasp); satym 14028, 21 h): 0
Colony Color (Candida albicans (caal); caal 10231, CO2, 24 h): gb
Colony Color (Candida albicans (caal); caal 10231, air, 24 h): 0
Colony Color (Summary) (Candida albicans (caal); [14]): +
Colony Color (Candida albicans (caal); one C. albicans): blue
Growth vs. control (S. milleri (stmi); [16]): <grth
Colony Color (Summary) (S. milleri (stmi); [14]): 0
Colony Color on Various Chromogenic TSA II with 5% Sheep Blood (S. milleri (stmi); stmi 6242, CO2, 18 h): 0
Colony Color (S. milleri (stmi); stmi 6249, air, 21 h): 0
Growth vs. control (S. pneumoniae (stpn); [16]): <grth
Colony Color (Summary) (S. pneumoniae (stpn); [15]): 0
Colony Color (S. pneumoniae (stpn); stpn 1259, CO2, 21 h): 0
Colony Color (S. pneumoniae (stpn); stpn 1260, CO2, 21 h): 0
Colony Color (S. pneumoniae (stpn); stpn 1331, CO2, 21 h): 0
Colony Color (S. pneumoniae (stpn); stpn 1628, CO2, 21 h): 0
Colony Color (S. pneumoniae (stpn); stpn 6303, CO2, 24 h): 0
Colony Color (S. pneumoniae (stpn); stpn 6303, air, 24 h): 0
Colony Color (S. pneumoniae (stpn); stpn 6305, CO2, 24 h): 0
Colony Color (S. pneumoniae (stpn); stpn 6305, air, 24 h): 0
Colony Color on Various Chromogenic TSA II with 5% Sheep Blood (S. pneumoniae (stpn); stpn t259, CO2): 0
Colony Color on Various Chromogenic TSA II with 5% Sheep Blood (S. pneumoniae (stpn); stpn t260, CO2): 0
Colony Color on Various Chromogenic TSA II with 5% Sheep Blood (S. pneumoniae (stpn); stpn t331, CO2): drkr < muc
Colony Color on Various Chromogenic TSA II with 5% Sheep Blood (S. pneumoniae (stpn); stpn t628, CO2): 0
Colony Color (Summary) ([10]; chromogenic TSA II with 5% Sheep Blood, 0.1 g/l, 5 strains tested): 0
Colony Color ([10]; stau 1006, CO2, 21 h): 0
Colony Color ([10]; stau 1007, CO2, 21 h): 0
Colony Color ([10]; stau 1008, CO2, 21 h): 0
Colony Color ([10]; stau 1009, CO2, 21 h): 0
Colony Color ([10]; stau 25923, CO2, 18 h): 0
Colony Color ([10]; stau 25923, CO2, 24 h): 0
Colony Color ([10]; stau 25923, air, 24 h): 0
Colony Color on Various Chromogenic TSA II with 5% Sheep Blood ([10]; stau t006, CO2, 18 h): 0
Colony Color on Various Chromogenic TSA II with 5% Sheep Blood ([10]; stau t007, CO2, 18 h): 0
Colony Color on Various Chromogenic TSA II with 5% Sheep Blood ([10]; stau t008, CO2, 18 h): 0
Colony Color on Various Chromogenic TSA II with 5% Sheep Blood ([10]; stau t009, CO2, 18 h): 0
Substrates Producing Color ([11]; Summary of Table I, S. pneumoniae 6303): X-Acglmn (TSA II
Color ([11]; TSA II 5SB, S. pneu: 6303): blue
Growth vs. control (S pyogenes (stpy); [16]): <grth
Colony Color (Summary) (S pyogenes (stpy); [15]): 0
Colony Color (S pyogenes (stpy); stpy 1027, CO2): 0
Colony Color (S pyogenes (stpy); stpy 1028, CO2): 0
Colony Color (S pyogenes (stpy); stpy 1029, CO2): 0
Colony Color (S pyogenes (stpy); stpy 1030, CO2): 0
Colony Color (S pyogenes (stpy); stpy 19615, CO2): 0
Colony Color (S pyogenes (stpy); stpy 19615, air): 0
Colony Color (S pyogenes (stpy); stpy 49117, CO2): 0
Colony Color (S pyogenes (stpy); stpy 49117, air): 0
Colony Color on Various Chromogenic TSA II with 5% Sheep Blood (S pyogenes (stpy); stpy 51339, CO2): 0
Colony Color (S pyogenes (stpy); stpy 51339, CO2): 0
Colony Color (S pyogenes (stpy); stpy 51339, air): 0
Colony Color on Various Chromogenic TSA II with 5% Sheep Blood (S pyogenes (stpy); stpy t027, CO2): 0
Colony Color on Various Chromogenic TSA II with 5% Sheep Blood (S pyogenes (stpy); stpy t028, CO2): 0
Colony Color on Various Chromogenic TSA II with 5% Sheep Blood (S pyogenes (stpy); stpy t029, CO2): 0
Colony Color on Various Chromogenic TSA II with 5% Sheep Blood (S pyogenes (stpy); stpy t030, CO2): 0
